Laboratory results published in patent publication US5770599A, “Quinazoline derivatives” (Zeneca Limited, priority 1995, dated 1998).
Read-outs that look alike come from different tables or passages of the source.

How the values were obtained:
[1] = system: human naso-pharyngeal cancer cell line KB; experiment: cells; format: cell-based; conditions: 72 h, values stated as approximate, EGF 10 ng/ml, 3 days, read-out: Test (b) IC50
Method: (b) An in vitro assay which determines the ability of a test compound to inhibit the EGF-stimulated growth of the human naso-pharyngeal cancer cell line KB.
Cell growth was determined after incubation for 3 days by the extent of metabolism of MTT tetrazolium dye to furnish a bluish colour. Cell growth was then determined in the presence of EGF (10 ng/ml) or in the presence of EGF (10 ng/ml) and a test compound at a range of concentrations. An IC50 value could then be calculated.

[2] = target: T1, EGF receptor tyrosine kinase (Homo sapiens, UniProt P00533); experiment: Test (a): in vitro assay of inhibition of the enzyme EGF receptor tyrosine kinase (32P peptide phosphorylation); format: biochemical
T1 construct: Receptor tyrosine kinase was obtained in partially purified form from A-431 cells; endogenous in cells; host or cells: A-431 cells (human vulval carcinoma); solubilised membrane fraction
T1 sequence (P00533 25-1210): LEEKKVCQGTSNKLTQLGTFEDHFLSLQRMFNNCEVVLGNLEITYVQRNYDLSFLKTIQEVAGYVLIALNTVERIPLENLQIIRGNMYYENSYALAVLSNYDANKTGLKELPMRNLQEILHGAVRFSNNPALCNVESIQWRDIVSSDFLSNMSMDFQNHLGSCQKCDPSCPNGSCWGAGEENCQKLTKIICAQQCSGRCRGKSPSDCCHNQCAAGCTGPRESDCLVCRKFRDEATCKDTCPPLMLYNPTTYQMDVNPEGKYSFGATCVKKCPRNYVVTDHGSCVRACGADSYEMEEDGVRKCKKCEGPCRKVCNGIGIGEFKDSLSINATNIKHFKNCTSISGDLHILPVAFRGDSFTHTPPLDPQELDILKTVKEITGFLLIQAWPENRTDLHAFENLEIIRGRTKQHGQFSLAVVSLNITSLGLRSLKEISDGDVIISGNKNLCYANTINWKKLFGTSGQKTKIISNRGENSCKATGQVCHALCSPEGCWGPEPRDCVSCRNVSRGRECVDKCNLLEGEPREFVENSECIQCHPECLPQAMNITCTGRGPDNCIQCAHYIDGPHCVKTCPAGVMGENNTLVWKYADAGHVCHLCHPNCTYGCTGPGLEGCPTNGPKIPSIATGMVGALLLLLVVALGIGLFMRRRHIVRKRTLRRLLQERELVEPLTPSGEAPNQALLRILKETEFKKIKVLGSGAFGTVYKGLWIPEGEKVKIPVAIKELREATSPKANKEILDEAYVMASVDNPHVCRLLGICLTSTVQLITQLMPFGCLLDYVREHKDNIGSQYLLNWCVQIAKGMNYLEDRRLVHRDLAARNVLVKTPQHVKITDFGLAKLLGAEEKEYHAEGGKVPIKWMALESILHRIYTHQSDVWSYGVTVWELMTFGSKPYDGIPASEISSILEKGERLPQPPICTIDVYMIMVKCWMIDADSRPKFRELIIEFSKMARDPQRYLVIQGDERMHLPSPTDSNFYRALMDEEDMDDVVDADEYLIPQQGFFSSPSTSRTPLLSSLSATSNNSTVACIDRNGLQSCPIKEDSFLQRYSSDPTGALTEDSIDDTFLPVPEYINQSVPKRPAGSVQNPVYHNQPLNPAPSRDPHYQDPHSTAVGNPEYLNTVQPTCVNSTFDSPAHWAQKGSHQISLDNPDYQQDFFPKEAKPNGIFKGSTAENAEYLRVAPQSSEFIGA
Method: (a) An in vitro assay which-determines the ability of a test compound to inhibit the enzyme EGF receptor tyrosine kinase.
A-431 cells were grown to confluence using Dulbecco's modified Eagle's medium (DMEM) containing 5% fetal calf serum (FCS). […] The homogenate was centrifuged at 400 g for 10 minutes at 0°-4° C. The supernatant was centrifuged at 25,000 g for 30 minutes at 0°-4° C. The pelleted material was suspended in 30 mM Hepes buffer at pH 7.4 containing 5% glycerol, 4 mM benzamidine and 1% Triton X-100, stirred for 1 hour at 0°-4° C., and recentrifuged at 100,000 g for 1 hour at 0°-4° C. The supernatant, containing solubilised receptor tyrosine kinase, was stored in liquid nitrogen.
There was thus obtained the test enzyme solution.
Equal volumes of this solution and a solution of epidermal growth factor (EGF; 20 μg/ml) were mixed.
[γ-^32 P]ATP (3000 Ci/mM, 250 μCi) was diluted to a volume of 2 ml by the addition of a solution of ATP (100 μM) in distilled water. An equal volume of a 4 mg/ml solution of the peptide […]in a mixture of 40 mM Hepes buffer at pH 7.4, 0.1% Triton X-100 and 10% glycerol was added.
The test compound/EGF mixture solution (5 μl) was added to the test enzyme solution (10 μl) and the mixture was incubated at 0°-4° C. for 30 minutes. The ATP/peptide mixture (10 μl) was added and the mixture was incubated at 25° C. for 10 minutes. The phosphorylation reaction was terminated by the addition of 5% trichloroacetic acid (40 μl ) and bovine serum albumin (BSA; 1 mg/ml, 5 μl). The mixture was allowed to stand at 4° C. for 30 minutes and then centrifuged. An aliquot (40 μl) of the supernatant was placed onto a strip of Whatman p 81 phosphocellulose paper. The strip was washed in 75 mM phosphoric acid (4×10 ml) and blotted dry. Radioactivity present in the filter paper was measured using a liquid scintillation counter (Sequence A). The reaction sequence was repeated in the absence of the EGF (Sequence B) and again in the absence of the test compound (Sequence C).

[3] = system: EGF receptor tyrosine kinase; conditions: Fry et al., Science, 1994, 265, 1093; cited from earlier work
[4] = system: another carcinoma which does not express EGF receptor tyrosine kinase; conditions: Toi et al., 1990; cited from earlier work
[5] = system: human vulval epidermoid carcinoma cell line A-431; experiment: Test (c): in vivo inhibition of growth of A-431 xenografts in athymic nude mice; design: species or system human (xenograft in athymic nude mice); conditions: Mus musculus, A-431, 312 h; usually oral, once daily, 13 days; approximately
Method: (c) An in-vivo assay in a group of athymic nude mice (strain ONU:Alpk) which determines the ability of a test compound (usually administered orally as a ball-milled suspension in 0.5% polysorbate) to inhibit the growth of xenografts of the human vulval epidermoid carcinoma cell line A-431.
A-431 cells were maintained in culture in DMEM supplemented with 5% FCS and 2 mM glutamine. Freshly cultured cells were harvested by trypsinization and injected subcutaneously (10 million cells/0.1 ml/mouse) into both flanks of a number of donor nude mice. When sufficient tumour material was available (after approximately 9 to 14 days), fragments of tumour tissue were transplanted in the flanks of recipient nude mice (test day 0). Generally, on the seventh day after transplantation (test day 7) groups of 7 to 10 mice with similar-sized tumours were selected and dosing of the test compound was commenced. Once daily dosing of test compound was continued for a total of 13 days (test days 7 to 19 inclusive). In some studies the dosing of the test compound was continued beyond test day 19, for example to test day 26. In each case, on the following test day the animals were killed and the final tumour volume was calculated from measurements of the length and width of the tumours. Results were calculated as a percentage inhibition of tumour volume relative to untreated controls.

[6] = values stated as approximate, EGF receptor tyrosine kinase from A-431 cells

Row | SMILES | IC50 [1] | IC50 [2, 6] | other results
1 | COc1cc2ncnc(Nc3ccc(F)c(Cl)c3)c2cc1OCC(O)CN1CCOCC1 (stereo not shown) [Example 9, 4-(3'-chloro-4'-fluoroanilino)-6-(2-hydroxy-3-morpholinopropoxy)-7-methoxyquinazoline] | 0.1 µM | 0.01 µM | 
2 | COc1cc2ncnc(Nc3cccc(Br)c3)c2cc1OC [4-(3'-bromoanilino)-6,7-dimethoxyquinazoline] |  |  | inhibition of EGF receptor tyrosine kinase [3]: highly potent inhibitor of EGF receptor tyrosine kinase
3 | COc1cc2ncnc(Nc3ccc(F)c(Cl)c3)c2cc1OCCN(C)C [Example 6, 4-(3'-chloro-4'-fluoroanilino)-6-(2-dimethylaminoethoxy)-7-methoxyquinazoline] | 0.1 µM | 0.01 µM | 
4 | COc1cc2ncnc(Nc3ccc(F)cc3F)c2cc1OCCCN1CCOCC1 [Example 14, 4-(2',4'-difluoroanilino)-7-methoxy-6-(3-morpholinopropoxy)quinazoline] | 0.3 µM | 0.67 µM | 
5 | COc1cc2ncnc(Nc3ccc(F)cc3F)c2cc1OCCCN(C)C [Example 8, 4-(2',4'-difluoroanilino)-6-(3-dimethylaminopropoxy)-7-methoxyquinazoline] | 0.9 µM | 0.48 µM | 
6 | COc1cc2ncnc(Nc3ccc(F)c(Cl)c3)c2cc1OCCN1CCOCC1 [Example 3, 4-(3'-chloro-4'-fluoroanilino)-7-methoxy-6-(2-morpholinoethoxy)quinazoline] | 0.4 µM | 0.01 µM | 
7 | COCCN(CCOC)CCOc1cc2c(Nc3ccc(F)c(Cl)c3)ncnc2cc1OC [Example 5, 4-(3'-chloro-4'-fluoroanilino)-7-methoxy-6-{2-[di-(2-methoxyethyl)amino]ethoxy}quinazoline] | 0.2 µM | 0.06 µM | 
8 | COc1cc2ncnc(Nc3ccc(F)c(Cl)c3)c2cc1OCCN1CCN(C)CC1 [Example 4, 4-(3'-chloro-4'-fluoroanilino)-7-methoxy-6-[2-(4-methylpiperazin-1-yl)ethoxy]quinazoline] | 0.1 µM |  | IC50 [2]: 0.01 µM
9 | CCN(CC)CCOc1cc2c(Nc3ccc(F)c(Cl)c3)ncnc2cc1OC [Example 7, 4-(3'-chloro-4'-fluoroanilino)-6-(2-diethylaminoethoxy)-7-methoxyquinazoline] | 0.3 µM | 0.09 µM | 
10 | COc1cc2ncnc(Nc3ccc(F)c(F)c3)c2cc1OCCCN1CCOCC1 [Example 19, 4-(3',4'-difluoroanilino)-7-methoxy-6-(3-morpholinopropoxy)quinazoline] | 0.45 µM | 0.52 µM | 
11 | COc1cc2ncnc(Nc3ccc(F)c(F)c3)c2cc1OCCCN(C)C [Example 18, 4-(3',4'-difluoroanilino)-6-(3-dimethylaminopropoxy)-7-methoxyquinazoline] | 0.39 µM | 0.27 µM | 
12 | CCN(CC)CCCOc1cc2c(Nc3ccc(F)c(F)c3)ncnc2cc1OC [Example 20, 6-(3-diethylaminopropoxy)-4-(3',4'-difluoroanilino)-7-methoxyquinazoline] | 0.55 µM | 0.67 µM | 
13 | O=CN/C=C/c1cc(O)ccc1O [erbstatin] |  |  | growth of another carcinoma not expressing EGF receptor tyrosine kinase [4]: without effect on the growth
14 | COc1cc2ncnc(Nc3ccc(F)c(Cl)c3)c2cc1OCCCN1CCOCC1 [Example 1, 4-(3'-chloro-4'-fluoroanilino)-7-methoxy-6-(3-morpholinopropoxy)quinazoline] |  |  | ED50 [5]: ~12.5 mg/kg
